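Each compound was tested at five concentrations against cells in 96-well plates for 48 hours. GI50: concentration for 50% inhibition of growth. Definition used: TGI = concentration required for complete inhibition of growth.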
Tests used:
Test in all cases: NCI anticancer screen, dose series, 48 h
CCRF-CEM leukemia = tested on: CCRF-CEM leukemia
MOLT-4 leukemia = tested on: MOLT-4 leukemia
OVCAR-8 ovarian = tested on: OVCAR-8 ovarian
OVCAR-3 ovarian = tested on: OVCAR-3 ovarian
KM12 colon = tested on: KM12 colon
EKVX NSCLC = tested on: EKVX NSCLC
786-0 renal = tested on: 786-0 renal
NCI-H522 lung = tested on: NCI-H522 lung
SF-268 CNS = tested on: SF-268 CNS
MDA-MB-435 = tested on: MDA-MB-435

Row | Compound | TGI (CCRF-CEM leukemia) [µM] | TGI (MOLT-4 leukemia) [µM] | TGI (OVCAR-8 ovarian) [µM] | TGI (OVCAR-3 ovarian) [µM] | TGI (KM12 colon) [µM] | TGI (EKVX NSCLC) [µM] | TGI (786-0 renal) [µM] | TGI (NCI-H522 lung) [µM] | TGI (SF-268 CNS) [µM] | GI50 (MDA-MB-435) [µM] | TGI (MDA-MB-435) [µM] | GI50 (MOLT-4 leukemia) [µM] | GI50 (OVCAR-8 ovarian) [µM] | GI50 (OVCAR-3 ovarian) [µM] | GI50 (KM12 colon) [µM] | GI50 (786-0 renal) [µM] | GI50 (NCI-H522 lung) [µM] | GI50 (SF-268 CNS) [µM] | GI50 (CCRF-CEM leukemia) [µM] | GI50 (EKVX NSCLC) [µM]
1 | CC(C)CCCC(C)[C@H]1CCC2[C@@H]3CCC4Nc5c(cnn5-c5ccccc5)C[C@]4(C)C3CC[C@@]21C (stereo not given in full) | > 100 | > 100 | > 100 | > 100 | > 100 | 79.8 | > 100 | > 100 | > 100 |  |  |  |  |  |  |  |  |  |  | 
2 | O=c1[nH]c2nc(NC3CCOCC3)ncc2cc1Oc1ccc(F)cc1F |  | > 25 | > 25 | > 25 | > 25 |  | > 25 | > 25 | > 25 | > 25 | > 25 | > 25 | > 25 | > 25 | > 25 | > 25 | > 25 | > 25 |  | 
3 | COC(=O)c1c2c(cc3c1CC1(Cc4cc5c(c(C(C)=O)c4C1)CCC5)C3)CCC2 (stereo not given) | > 100 | > 100 | > 100 | > 100 | > 100 |  | > 100 | > 100 | > 100 |  |  |  |  |  |  |  |  |  |  | 
4 | O=S(=O)(NCn1ccc2ccccc21)c1ccccc1 | > 100 | > 100 | > 100 | > 100 | > 100 | > 100 | > 100 | > 100 | > 100 |  |  |  |  |  |  |  |  |  |  | 
5 | CC(=O)OCC(=O)[C@@]12OC(C)(C)O[C@@H]1C[C@H]1[C@@H]3CC(C=O)=C4C=C(OCCCl)CC[C@]4(C)[C@@]3(F)[C@@H](O)C[C@@]12C | > 100 | > 100 | > 100 | > 100 | > 100 | > 100 | > 100 | 92 | > 100 |  |  |  |  |  |  |  |  |  |  | 
6 | CC(=O)O[C@]1(C)OC(=O)[C@@H](CC(C)C)N1[N+](=O)[O-] | > 100 | > 100 | > 100 | > 100 | > 100 | > 100 | > 100 | > 100 |  |  |  |  |  |  |  |  |  |  |  | 
7 | Cc1nn2c(/C=C3/C(=O)Nc4cc(Cl)ccc43)c(-c3ccccc3)nc2s1 | > 100 | > 100 | > 100 | 3.68 | > 100 |  | 4.37 | 4.11 | > 100 | 3.72 | > 100 | 4.11 | 2.89 | 1.89 | 59.1 | 2.15 | 1.8 | 6.81 | 4.35 | 
8 | NNC(=O)C(=O)N/N=C1\CCC(=O)CC1C(=O)CCC(=O)Nc1ccc(Cl)cc1 (stereo not given) | > 100 | > 100 | > 100 | > 100 | > 100 | > 100 | > 100 |  | > 100 |  |  |  |  |  |  |  |  |  |  | 
9 | CCOC(=O)CCn1ncc(Cl)c(Cl)c1=O | 9.76 | 11.7 | 11.9 | 10.8 | 20 | 36 | 34.7 | 0.834 | 21.6 |  |  |  |  |  |  |  |  |  |  | 
10 | C[Si](C)(C)/C=C\CCO | > 100 | > 100 | > 100 | > 100 | > 100 | > 100 | > 100 | > 100 | > 100 |  |  |  |  |  |  |  |  |  |  | 
11 | C=CCO/N=C(\OC(=O)c1ccc([N+](=O)[O-])cc1)c1ccccc1 | > 100 |  | > 100 | > 100 | > 100 | > 100 | > 100 |  | > 100 |  |  |  |  |  |  |  |  |  |  | 
12 | N.N.N.N.N.O=[N+]([O-])[O-].[Co+3].[O-][Cl+3]([O-])([O-])[O-] | > 100 | > 100 | > 100 | > 100 | > 100 | > 100 | > 100 | > 100 | > 100 |  |  | > 100 | > 100 | > 100 | > 100 | > 100 | > 100 | > 100 | > 100 | > 100
13 | C#Cc1c(C)c(/C=C/C(C)=C/C(=O)OC)n(C)c1C | > 100 | > 100 | > 100 | > 100 | > 100 | > 100 | > 100 | > 100 | > 100 |  |  |  |  |  |  |  |  |  |  | 
14 | COc1ccc(CCc2cc(OC)cc(OC)c2)cc1 | 96.8 | 56.5 | > 100 | > 65.9 | > 100 | > 100 | > 100 | > 41 | > 100 |  |  |  |  |  |  |  |  |  |  | 
15 | O=C(O)CCNCCCCNCCC(=O)O | > 100 | > 100 | > 100 | > 100 | > 100 | > 100 | > 100 | > 100 | > 100 |  |  |  |  |  |  |  |  |  |  | 

Reference: PubChem BioAssay (NCI)
